73 molecules from the OPERA property sets (Mansouri et al. 2018) can be followed below.

The structures appear in SMILES notation.

Details in the first series: not given
In general, boiling point refers to the temperature of boiling at a given pressure. `CCOS(=O)(=O)Cl` showed a boiling point of 152 °C. On to `CCCCC(CC)C(=O)OCC(COC(=O)C(CC)CCCC)OC(=O)C(CC)CCCC` (configuration not stated), for which the ready biodegradability result is “readily biodegradable”. By melting point is commonly meant the temperature of the solid-liquid transition. With `C=CCCC=C`, the boiling point is 59.4 °C, the log10 vapour pressure (mmHg) worked out at 2.34 and the melting point is -141 °C. Molecule `CC(C)(O)CCc1ccccc1` yielded a melting point of 24.5 °C. The same measure, in the same setting: for `CCN(CC)CCOC(=O)C(O)(c1ccccc1)c1ccccc1` the value was 51 °C.

As for `CC(C)C=CCl`, the boiling point was 87 °C. The same measure, in the same setting: for `CCCCC(C)C(C)(C)C` (configuration not stated) the value was 158 °C. In turn, `O=Nc1ccccc1` gave a melting point of 68.5 °C. As for `C=CCNS(=O)(=O)c1cc(S(N)(=O)=O)c(Cl)cc1/N=C/C=C(/C)O`, the melting point was 206 °C. `CCCCCCCCCCCCCCCCCCC1CCCCC1` came in with a boiling point of 409 °C and a melting point of 41.6 °C. As to `CCCCc1cc2ccccc2c(OCCN(C)C)n1`, the melting point turned out to be 146 °C. The molecule `Cc1cccc(C)c1NC(=O)C(C)N` (configuration not stated) gave a melting point of 256 °C. Consider `CCSC(=O)N(CC(C)C)CC(C)C`, for which the log10 Koc (L/kg) turned out to be 2.11 and the log10 vapour pressure (mmHg) is -1.89. On to `CCCCB(CCCC)CCCC`, for which the boiling point stood at 209 °C. Take `Cc1ccc(Cl)c(O)c1`: the boiling point was 213 °C, the melting point worked out at 50.8 °C and the ready biodegradability result is recorded as “not readily biodegradable”. As for `Ic1ccc(I)s1`, the melting point stood at 41.5 °C.

The molecule `CC(C)OC(=O)C(=O)OC(C)C` yielded a boiling point of 191 °C. Molecule `CCCC(N)=O` had a boiling point of 216 °C, a log10 vapour pressure (mmHg) of -2.41 and a melting point of 115 °C. `CC1(C)OC(=O)CC1CC(=O)O` (configuration not stated): the melting point came to 90 °C. Regarding `O=C1C=CC(=O)c2c(O)ccc(O)c21`, the melting point turned out to be 232 °C. As for `CC1(C)CCCCC1`, the boiling point is 120 °C, the log10 vapour pressure (mmHg) is 1.36, the melting point was -33.3 °C and the ready biodegradability entry was “not readily biodegradable”. Molecule `Nc1ccc(C(=O)NCC(=O)O)cc1` displayed a melting point of 198 °C.

In turn, `CCn1cc(C(=O)O)c(=O)c2cc(F)c(N3CCNCC3)cc21` had a melting point of 228 °C. `CC(C)[C@@H](Br)C(=O)O` displayed a boiling point of 230 °C and a melting point of 44 °C. As to `Fc1cc(F)nc(F)n1`, the boiling point amounted to 98 °C. As to `CCCCCCCCCCCCCCCCCCCC(=O)OCC`, the log10 vapour pressure (mmHg) was -7.72 and the melting point is 50 °C. Consider `CC(Cl)C(=O)O` (configuration not stated), for which the boiling point was 185 °C. Molecule `O=C(O)c1nc[nH]c1C(=O)O` gave a melting point of 288 °C. As for `CCCCC1CCCCC1`, the boiling point is 181 °C, the log10 vapour pressure (mmHg) is 0.119 and the melting point is -74.7 °C.

With `C=O`, the boiling point is -19.1 °C, the log10 Henry constant (atm·m³/mol) is -6.47 and the ready biodegradability entry is listed as “readily biodegradable”. Turning to `N#CCC#N`, the boiling point is 218 °C, the log10 vapour pressure (mmHg) was -0.698 and the melting point is 32 °C. For the molecule `CC(C)NCC(O)c1ccc2ccccc2c1` (configuration not stated), the melting point was found to be 108 °C.

In turn, `O=[PH](O)c1ccccc1` returned a melting point of 84 °C.

Consider `CCC1CC1`, for which the boiling point amounted to 35.9 °C and the melting point is -149 °C. With `O=C(O)c1cc(Oc2ccc(C(F)(F)F)cc2Cl)ccc1[N+](=O)[O-]`, the log10 Koc (L/kg) came to 2.05 and the melting point worked out at 150 °C. In the case of `O=P(c1ccccc1)(c1ccccc1)c1ccccc1`, the log10 vapour pressure (mmHg) was -8.59 and the melting point came out at 156 °C.

On to `CP(C)(=O)O`, for which the melting point is 92 °C. Consider `COc1cccc(C(=O)O)c1OC`, for which the log10 vapour pressure (mmHg) is -5.73 and the melting point was found to be 123 °C.

Turning to `Nc1ncnc2c1ncn2[C@@H]1O[C@@H]2COP(=O)(O)O[C@H]2[C@H]1O`, the melting point was determined as 220 °C. Consider `C=CCc1ccccc1`, for which the boiling point is 156 °C and the melting point is -40 °C. For `COC(=O)c1c(Cl)c(Cl)c(C(=O)OC)c(Cl)c1Cl`, the boiling point is 365 °C, the log10 Koc (L/kg) was 3.7, the log10 vapour pressure (mmHg) was -5.6 and the melting point was 155 °C. Further, the ready biodegradability entry is recorded as “not readily biodegradable”. Regarding `CCOC(=O)C(F)(F)C(F)(F)C(F)(F)F`, the boiling point is 95 °C. Take `CCc1ccc(O)c(C(C)(C)C)c1`: the log10 vapour pressure (mmHg) is -1.74. Consider `CCC(C)(CC)CC`, for which the boiling point was found to be 118 °C, the log10 vapour pressure (mmHg) came to 1.36 and the melting point is -90.9 °C. In turn, `O=C1OC2(c3ccccc31)c1ccc(O)c(Br)c1Oc1c2ccc(O)c1Br` registered a melting point of 285 °C.

Regarding `C#CCCC(C)=O`, the boiling point came to 149 °C. In turn, `COC1=CC=C2[C@H]3Cc4ccc(OC)c5c4[C@@]2(CCN3C)[C@H]1O5` gave a melting point of 193 °C. Still for that read-out and setting: for `N=C(N)N1CCc2ccccc2C1` the value was 279 °C.

Consider `CCC(CO)(CO)COCC(CC)(CO)CO`, for which the melting point was found to be 110 °C and the ready biodegradability result was “not readily biodegradable”. For the molecule `Oc1ccc2c(O)cccc2c1`, the melting point was 138 °C. On to `FC(F)(F)c1ccc(Cl)cc1`, for which the boiling point came out at 138 °C, the log10 vapour pressure (mmHg) was 0.882 and the melting point was -33 °C.

Consider `O=c1c(O)c(O)c(=O)c1=O`, for which the melting point turned out to be 150 °C. With `CCCC(C)CO` (configuration not stated), the boiling point is 149 °C and the log10 vapour pressure (mmHg) is 0.283. With `CCC(C)N` (configuration not stated), the boiling point was 62.8 °C, the log10 vapour pressure (mmHg) was 2.25, the melting point was -104 °C and the ready biodegradability result is given as “readily biodegradable”. `O=C(/C=C/c1ccccc1)c1ccccc1` showed a boiling point of 346 °C and a melting point of 57.5 °C. `ClCC(Cl)(CCl)CCl` yielded a boiling point of 211 °C. `CC(C)OC(=O)[C@@H](C)N(C(=O)c1ccccc1)c1ccc(F)c(Cl)c1` came in with a log10 vapour pressure (mmHg) of -6.2. In the case of `Cc1ccc(N)c(N)c1`, the boiling point was found to be 265 °C, the log10 vapour pressure (mmHg) is -3.2 and the melting point worked out at 89.5 °C.

The molecule `CCOC(=O)CC(=O)CC(=O)OCC` gave a boiling point of 250 °C. In turn, `CC(C)CSCC(C)C` registered a boiling point of 171 °C and a melting point of -106 °C. Take `CCCCCCCCCCCCC`: the boiling point turned out to be 235 °C, the log10 biodegradation half-life (days) worked out at 1.08, the log10 vapour pressure (mmHg) was -1.25 and the melting point was -5.3 °C. Besides, the ready biodegradability entry was “readily biodegradable”. Molecule `COc1ccc(OC)c(C=O)c1` had a boiling point of 270 °C and a melting point of 52 °C. Regarding `C=CC(C)(O)CCC=C(C)C` (configuration not stated), the boiling point was 198 °C, the log10 Henry constant (atm·m³/mol) was -4.67, the log10 vapour pressure (mmHg) was -0.796 and the ready biodegradability entry was “readily biodegradable”. With `Cc1ccc(C)nc1`, the boiling point was 157 °C, the log10 Henry constant (atm·m³/mol) was -5.06, the log10 vapour pressure (mmHg) was 0.526 and the melting point is -16 °C. `FC(F)(F)C1(F)C(F)(F)C(F)(F)C(F)(F)C(F)(F)C1(F)F` had a boiling point of 76.3 °C, a log10 vapour pressure (mmHg) of 2.02 and a melting point of -44.7 °C.

The molecule `O=C1c2ccccc2C(=O)N1SC(Cl)(Cl)Cl` showed a log10 Koc (L/kg) of 3.27 and a log10 vapour pressure (mmHg) of -6.8.

On to `CCC(C)(C)C`, for which the boiling point amounted to 49.7 °C, the log10 biodegradation half-life (days) turned out to be 1.28, the log10 vapour pressure (mmHg) was 2.5 and the melting point was -99 °C. With `NCc1cc(O)no1`, the melting point is 175 °C. In the case of `CC(=O)NCc1ccccc1`, the melting point was determined as 61 °C and the ready biodegradability entry is “readily biodegradable”.

As to `O=C(Cl)c1cccc(Cl)c1`, the boiling point is 225 °C and the log10 vapour pressure (mmHg) is -0.854.

In the case of `CC=Cc1ccc(OC)c(OC)c1`, the boiling point was determined as 270 °C and the melting point stood at 18 °C.

The molecule `CC(F)=C(Cl)Cl` came in with a boiling point of 78 °C. `O=[N+]([O-])c1ccc2[nH]nnc2c1` showed a melting point of 217 °C.

Still in this series, the particulars now being: fish.
In the case of `Cc1ccc(Cl)c(O)c1`, the log10 BCF amounted to 0.67.

In turn, `O=[PH](O)c1ccccc1` gave a log10 BCF of 0.78. `CCCCCCCCCCCCC`: the log10 biotransformation half-life (days) came to 1.03.
